The values that follow come from ChEMBL document CHEMBL1909046, “DrugMatrix in vitro pharmacology data”.

Test [1] can be described thus: DRUGMATRIX: Serotonin (5-Hydroxytryptamine) 5-HT3 radioligand binding (ligand: [3H] GR-65630). It is filed as cell membranes, Membrane. The note with it: hek293; Not Active = under 50% inhibition at 10 µM.
The target in test [2] is T1, Thromboxane-A synthase (Homo sapiens, UniProt P24557).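 Note: enzyme inhibition assay with PGH2 supplied as substrate; in other assays of this panel Not Active means under 50% inhibition at 10 µM.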
T1 sequence (P24557 whole entry): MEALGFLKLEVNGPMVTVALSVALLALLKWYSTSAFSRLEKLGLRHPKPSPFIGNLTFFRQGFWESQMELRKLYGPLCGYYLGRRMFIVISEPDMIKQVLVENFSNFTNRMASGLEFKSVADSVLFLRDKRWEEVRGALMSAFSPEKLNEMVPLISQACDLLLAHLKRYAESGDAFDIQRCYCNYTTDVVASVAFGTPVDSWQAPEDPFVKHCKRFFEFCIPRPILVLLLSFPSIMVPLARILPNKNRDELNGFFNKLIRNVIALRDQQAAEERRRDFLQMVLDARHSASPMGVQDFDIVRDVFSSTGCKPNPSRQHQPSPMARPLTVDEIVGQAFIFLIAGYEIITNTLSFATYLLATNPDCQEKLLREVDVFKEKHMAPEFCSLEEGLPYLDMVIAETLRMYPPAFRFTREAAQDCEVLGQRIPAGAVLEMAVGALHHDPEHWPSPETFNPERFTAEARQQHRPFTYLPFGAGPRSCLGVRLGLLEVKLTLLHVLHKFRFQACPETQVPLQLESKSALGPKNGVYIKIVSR
Briefly: biochemical. It is filed as tissue-based, Platelet.

Test [3] has as its target T2, Vasoactive intestinal polypeptide receptor 1 (Homo sapiens, UniProt P32241). Note: in other assays of this panel Not Active means under 50% inhibition at 10 µM.
T2 sequence (P32241 whole entry): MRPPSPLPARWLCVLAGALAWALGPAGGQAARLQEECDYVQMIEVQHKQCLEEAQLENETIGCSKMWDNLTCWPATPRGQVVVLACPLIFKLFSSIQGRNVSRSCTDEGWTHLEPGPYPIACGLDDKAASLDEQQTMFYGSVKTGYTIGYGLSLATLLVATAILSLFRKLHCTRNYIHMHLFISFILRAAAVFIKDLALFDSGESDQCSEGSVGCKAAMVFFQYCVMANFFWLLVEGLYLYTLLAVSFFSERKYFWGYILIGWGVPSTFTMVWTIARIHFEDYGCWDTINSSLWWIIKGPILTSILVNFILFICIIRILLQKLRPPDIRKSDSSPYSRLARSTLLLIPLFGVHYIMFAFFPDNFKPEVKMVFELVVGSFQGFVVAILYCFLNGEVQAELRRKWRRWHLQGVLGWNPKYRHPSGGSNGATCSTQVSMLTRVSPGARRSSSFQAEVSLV
In kind it is cell membranes, Membrane. The note with it: ht-29.

Test [4] concerns the target Prostaglandin G/H synthase 1 (Homo sapiens, UniProt P23219). Nature of the test: biochemical. In kind it is tissue-based, Platelet. The note with it: platelet.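 Note: inhibition of COX-1 enzyme activity, with arachidonic acid supplied as substrate; in other assays of this panel Not Active means under 50% inhibition at 10 µM.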
The target in test [5] is T3, Polyunsaturated fatty acid lipoxygenase ALOX15 (Oryctolagus cuniculus, UniProt P12530).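 Note: inhibition of 15-lipoxygenase enzyme activity measured with linoleic acid as the substrate; in other assays of this panel Not Active means under 50% inhibition at 10 µM.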
T3 sequence (P12530 whole entry): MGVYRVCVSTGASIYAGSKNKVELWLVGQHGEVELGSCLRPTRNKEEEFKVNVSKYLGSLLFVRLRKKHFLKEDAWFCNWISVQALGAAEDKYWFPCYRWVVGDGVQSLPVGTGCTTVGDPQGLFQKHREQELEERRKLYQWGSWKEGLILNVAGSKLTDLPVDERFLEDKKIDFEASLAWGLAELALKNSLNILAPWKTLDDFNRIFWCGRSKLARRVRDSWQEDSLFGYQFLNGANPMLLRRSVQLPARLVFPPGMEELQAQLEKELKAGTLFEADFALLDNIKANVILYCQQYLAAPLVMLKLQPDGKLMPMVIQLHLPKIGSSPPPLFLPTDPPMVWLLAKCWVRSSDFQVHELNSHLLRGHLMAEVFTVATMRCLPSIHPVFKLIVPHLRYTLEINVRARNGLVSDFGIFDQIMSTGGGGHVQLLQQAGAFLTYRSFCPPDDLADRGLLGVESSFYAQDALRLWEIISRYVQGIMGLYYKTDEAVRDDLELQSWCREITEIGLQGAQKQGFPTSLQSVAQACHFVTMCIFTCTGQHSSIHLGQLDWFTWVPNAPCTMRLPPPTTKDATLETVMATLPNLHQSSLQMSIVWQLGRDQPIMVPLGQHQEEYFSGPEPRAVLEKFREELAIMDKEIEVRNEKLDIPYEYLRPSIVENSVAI
Nature of the test: biochemical. In kind it is tissue-based, Reticulocytes. The settings on record: reticulocytes.

Test [6] deals with Melanocortin receptor 3 (Homo sapiens, UniProt P41968). It is filed as cell membranes, HEK293, Membrane. The settings on record: hek293.
The target of test [7] is T4, Amine oxidase [flavin-containing] A (Homo sapiens, UniProt P21397).
T4 sequence (P21397 whole entry): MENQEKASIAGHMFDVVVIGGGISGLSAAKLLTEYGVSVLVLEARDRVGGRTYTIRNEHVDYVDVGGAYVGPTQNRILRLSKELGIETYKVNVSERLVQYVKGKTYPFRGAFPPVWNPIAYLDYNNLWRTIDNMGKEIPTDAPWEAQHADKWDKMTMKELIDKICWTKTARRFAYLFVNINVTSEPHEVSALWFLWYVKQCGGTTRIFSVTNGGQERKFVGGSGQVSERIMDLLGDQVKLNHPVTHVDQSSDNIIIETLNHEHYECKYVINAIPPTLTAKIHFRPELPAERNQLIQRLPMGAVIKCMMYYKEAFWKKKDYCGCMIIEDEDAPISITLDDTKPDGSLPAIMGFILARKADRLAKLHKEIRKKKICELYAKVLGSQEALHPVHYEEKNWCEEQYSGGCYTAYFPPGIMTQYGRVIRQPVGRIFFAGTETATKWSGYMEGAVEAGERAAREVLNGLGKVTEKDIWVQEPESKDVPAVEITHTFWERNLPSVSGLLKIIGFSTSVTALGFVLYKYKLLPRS
Nature of the test: DRUGMATRIX: Monoamine Oxidase MAO-A enzyme inhibition (substrate: Kynuramine). Also on record: species or system BTI-TN-5B1-4. The note with it: bti-tn-5b1-4; Not Active = under 50% inhibition at 10 µM.

Test [8] addresses Protein kinase C alpha type (Homo sapiens, UniProt P17252). In kind it is cell-based. The settings on record: sf9.

Sequence of Melanocortin receptor 3 (P41968 whole entry): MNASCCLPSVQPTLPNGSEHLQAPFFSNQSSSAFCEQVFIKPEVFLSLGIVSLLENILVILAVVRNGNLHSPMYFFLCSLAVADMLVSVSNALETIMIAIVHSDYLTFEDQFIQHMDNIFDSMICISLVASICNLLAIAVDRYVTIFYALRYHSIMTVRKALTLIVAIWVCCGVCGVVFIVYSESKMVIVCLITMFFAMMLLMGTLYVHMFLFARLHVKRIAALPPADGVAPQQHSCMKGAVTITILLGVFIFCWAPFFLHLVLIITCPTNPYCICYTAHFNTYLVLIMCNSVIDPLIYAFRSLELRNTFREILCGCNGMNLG
Sequence of Prostaglandin G/H synthase 1 (P23219 whole entry): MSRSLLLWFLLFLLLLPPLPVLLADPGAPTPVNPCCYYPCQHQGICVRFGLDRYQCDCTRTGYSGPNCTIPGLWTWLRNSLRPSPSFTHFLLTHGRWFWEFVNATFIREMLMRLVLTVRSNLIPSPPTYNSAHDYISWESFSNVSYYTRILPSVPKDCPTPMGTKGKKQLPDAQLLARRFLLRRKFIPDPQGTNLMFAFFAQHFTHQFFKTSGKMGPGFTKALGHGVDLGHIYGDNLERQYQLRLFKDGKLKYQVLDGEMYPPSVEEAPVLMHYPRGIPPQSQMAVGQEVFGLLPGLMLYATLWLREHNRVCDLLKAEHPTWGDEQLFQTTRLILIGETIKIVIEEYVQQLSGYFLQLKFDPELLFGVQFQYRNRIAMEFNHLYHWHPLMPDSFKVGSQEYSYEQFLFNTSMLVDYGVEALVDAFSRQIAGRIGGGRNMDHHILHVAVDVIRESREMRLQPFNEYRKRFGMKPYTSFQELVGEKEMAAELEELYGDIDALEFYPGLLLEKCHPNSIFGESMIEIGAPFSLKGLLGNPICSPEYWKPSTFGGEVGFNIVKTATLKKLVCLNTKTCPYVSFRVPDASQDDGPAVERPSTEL

As a reminder, the IC50 is the concentration that gives 50% inhibition. For the molecule `C[N+](C)(C)CCOP(=O)([O-])OC[C@H](O)CO`, the IC50 result in test [1], in test [2] (platelet), in test [3], in test [4], in test [5] and in test [6] was “Not Active” each time. Besides, the IC50 result in test [7] and in test [8] was “Not Active” in each case. Moreover, the Ki entry in test [1] is on record as “Not Active”.

Turning to `Clc1cc(Cl)c(OCC#CI)cc1Cl` [HALOPROGIN], the IC50 result in test [1], in test [2] (platelet), in test [3], in test [4], in test [5] and in test [6] was “Not Active” throughout. For the same molecule, the IC50 result in test [7] and in test [8] was “Not Active” each time. The Ki entry in test [1] is recorded as “Not Active”.

With `Cc1cc(C(C)(C)C)c(O)c(C)c1CC1=NCCN1` [OXYMETAZOLINE], the IC50 entry in test [1], in test [2] (platelet), in test [3], in test [4], in test [5] and in test [6] was “Not Active” each time. Besides, the IC50 entry in test [7] and in test [8] was “Not Active” in each case. In addition, the Ki result in test [1] is “Not Active”.

With `C[N+](C)(C)CCOC(N)=O.[Cl-]` [CARBACHOL], the IC50 result in test [1], in test [2] (platelet), in test [3], in test [4], in test [5] and in test [6] was “Not Active” throughout. The IC50 entry in test [7] and in test [8] was “Not Active” in each case. Also, the Ki entry in test [1] is “Not Active”.

`CCN(CCO)CCCC(C)Nc1ccnc2cc(Cl)ccc12` (stereo unspecified) [HYDROXYCHLOROQUINE]: the IC50 result in test [1], in test [2] (platelet), in test [3], in test [4], in test [5] and in test [6] was “Not Active” each time. The 50% inhibitory concentration (IC50) entry in test [7] and in test [8] was “Not Active” in each case. The Ki result in test [1] is “Not Active”.

Regarding `O=C1c2ccccc2C(=O)C1c1ccccc1` [PHENINDIONE], the IC50 entry in test [1], in test [2] (platelet), in test [3], in test [4], in test [5] and in test [6] was “Not Active” throughout. Besides, the IC50 entry in test [7] and in test [8] was “Not Active” each time. Moreover, the Ki result in test [1] is “Not Active”.

As for `NC(N)=Nc1nc(CSCCC(N)=NS(N)(=O)=O)cs1` [FAMOTIDINE], the IC50 result in test [1], in test [2] (platelet), in test [3], in test [4], in test [5] and in test [6] was “Not Active” throughout. The IC50 result in test [7] and in test [8] was “Not Active” in each case. Besides, in test [1], the Ki result was “Not Active”.

In the case of `Cc1ccnc2c1NC(=O)c1cccnc1N2C1CC1` [NEVIRAPINE], the IC50 result in test [1], in test [2] (platelet), in test [3], in test [4], in test [5] and in test [6] was “Not Active” each time. For the same molecule, the IC50 entry in test [7] and in test [8] was “Not Active” throughout. In addition, in test [1], the Ki entry is “Not Active”.

For `CO[C@H]1O[C@@H]2O[C@@]3(C)CC[C@H]4[C@H](C)CC[C@@H]([C@H]1C)[C@@]24OO3`, the IC50 result in test [1], in test [2] (platelet), in test [3], in test [4], in test [5] and in test [6] was “Not Active” throughout. Further, the half-maximal inhibitory concentration (IC50) result in test [7] and in test [8] was “Not Active” each time. In addition, the Ki result in test [1] was “Not Active”.

On to `CN(CCOc1ccc(C[C@H](Nc2ccccc2C(=O)c2ccccc2)C(=O)O)cc1)c1ccccn1`, for which the IC50 entry in test [1] was “Not Active”; in test [2] (read-out: IC50) it was 2950 nM; in test [3], “Not Active”; in test [4], “Not Active”; in test [5], “Not Active”; in test [6] it was “Not Active”. Also, the IC50 result in test [7] and in test [8] was “Not Active” each time. Further, the Ki entry in test [1] is “Not Active”.

For the molecule `c1ccc2sc(SSc3nc4ccccc4s3)nc2c1` [BENZOTHIAZYL DISULFIDE], the IC50 entry in test [1], in test [2] (platelet), in test [3], in test [4], in test [5] and in test [6] was “Not Active” throughout. Moreover, the IC50 result in test [7] and in test [8] was “Not Active” in each case. For the same molecule, in test [1], the Ki result is “Not Active”.

On to `NS(=O)(=O)c1cc(C(=O)O)c(NCc2ccco2)cc1Cl` [FUROSEMIDE], for which the IC50 entry in test [1], in test [2] (platelet), in test [3], in test [4], in test [5] and in test [6] was “Not Active” throughout. In addition, the IC50 result in test [7] and in test [8] was “Not Active” throughout. Also, the Ki entry in test [1] is “Not Active”.

For the molecule `COc1ccc(C[C@H](N)C(=O)N[C@H]2[C@@H](O)[C@H](n3cnc4c(N(C)C)ncnc43)O[C@@H]2CO)cc1` [PUROMYCIN], the IC50 result in test [1], in test [2] (platelet), in test [3], in test [4], in test [5] and in test [6] was “Not Active” in each case. The IC50 result in test [7] and in test [8] was “Not Active” throughout. The Ki entry in test [1] is on record as “Not Active”.

In the case of `O=c1[nH]c2ccccc2c2ccccc12`, the IC50 entry in test [1], in test [2] (platelet), in test [3], in test [4], in test [5] and in test [6] was “Not Active” throughout. Moreover, the IC50 result in test [7] and in test [8] was “Not Active” throughout. In addition, in test [1], the Ki result is given as “Not Active”.
